“Also recorded” adds a separate entry of the source.
Key:
A375R cells = assay: Long-term colony formation assay, vemurafenib-resistant A375R cells; conditions: for sensitivity of cells in proliferation assay, HDACi panel: Vorinostat 1 uM, 01994 4 uM, AR2 0.5 uM, Pracinostat 0.25 uM, Quisinostat 25 nM, 8 day
Experimental: Long-term colony formation assay of melanoma (A375 and A375R clone) cells. […] Cells were fixed and stained at day 12. […] Long-term colony formation assay of melanoma Mel888 parental and vemurafenib-resistant Mel888R cells (three different clones Mel888RC-A, B and C) were seeded at the same cell density in 6-well plates and cultured in presence of vorinostat (1 microM) and/or vemurafenib (2 microM). Cells were fixed and stained at day 10. […] Long-term colony formation assay of melanoma A375 parental and double-resistant cells seeded in 12-well plates and treated with 2 microM vemurafenib and/or 0.5 microM CDX101 (CDX). Medium and drugs were refreshed every 2-3 days. Cells were fixed and stained on day 10.
Medium and drugs were refreshed every 2-3 days. Cells were fixed and stained on day 10
Long-term colony formation assay of A375 parental and MAPKi resistant A375R, A375DR cells treated sulfasalazine and vorinostat. Medium and drugs were refreshed every 2-3 days. Cells were fixed and stained on day 10.
The A375 melanoma cell line was obtained from ATCC. MEL888 were gifts from D. Peeper (Amsterdam, The Netherlands). WM266-4 and Colo741 cell line were provided by R. Marais (Manchester, UK). These cells are BRAF mutated melanoma. All the cell lines were cultured in DMEM medium supplemented with 10% FBS, 1% penicillin/streptomycin and 2 mM I-glutamine. Vemurafenib-resistant A375 and MEL888 cells were generated by long term (at least 3 months) culturing with 2 microM vemurafenib. Dabrafenib-Trametinib combination resistant A375 cells were generated by long term (at least 3 months) culturing with 0.25 microM Dabrafenib and 10 nM Trametinib (MEK inhibitor). Vemurafenib-resistant ex-vivo clones were isolated from immunodeficient BalbC mice, which were long-term treated with PLX4720-chow (50 mg/kg). All the in vitro cell lines have been STR profiled.
Cells were seeded into 6-well plates (5*10^4˜1*10^5 cells per well) or 12-well plates (4*10^4 cells per well) and cultured both in the absence and presence of drugs as indicated.

A375 melanoma cells [1] = assay: Long-term colony formation assay, A375 cells; format: cell-based, human; conditions: for effect of HDACi on the anti-proliferative effect of vemurafenib: HDACi together with vemurafenib; for proliferation in long-term colony formation assay: drug(s) without HDACi/BRAFi partner; for effect of HDACi on dabrafenib, trametinib and their combination: FIG. 3
Description: (§1) FIG. 1. BRAF inhibition is antagonized by HDAC inhibition in melanoma. A). […] The cells were fixed and stained at day 14. B). Short-term proliferation assay of melanoma (A375) cells. […] Error bars represent s.d. of biological triplicates. C,D). HDAC inhibitors and vemurafenib have antagonistic effects on MAPK pathway and HDAC inhibitors can rescue cells from vemurafenib-induced apoptosis. A375 were pre-treated with 1 microM vorinostat and 1 microM entinostat for 48 hrs and then treated with the combination of HDAC inhibitor (1 microM) and vemurafenib (1 microM) for additional 24 hrs. The levels of p-RB, p-MEK, MEK, cleaved PARP (cl. PARP) and ac-H3 were detected by western blot. β-actin served as the loading control.
(§2) FIG. 2. Other HDACi also confer resistance to vemurafenib. […] B).
(§3) FIG. 3. HDACi confers resistance to the combination of a MEK and a BRAF inhibitor in melanoma. A,B,C).

[2] = tested on: MEL888RC-A, B and C cells; assay: Long-term colony formation assay, vemurafenib-resistant MEL888 clones; format: cell-based; conditions: vorinostat 1 microM, CXD101 0.5 microM
Description: FIG. 5. […] Cells were fixed and stained on day 8.
(§4) These cells are BRAF mutated melanoma.

A375DR cells = assay: Long-term colony formation assay, dabrafenib/trametinib double-resistant A375DR cells; format: cell-based, human
Description: as §4

[3] = tested on: NRAS-mutant melanoma patients; conditions: phase II; cited from earlier work
SK-MEL-147R cells = assay: Long-term colony formation assay, MEKi-resistant SK-MEL-147R cells; format: cell-based, human
Experimental: (a). Long-term colony formation assay of SK-MEL-147 and MEKi-resistant SK-MEL-147R cells cultured in the presence of 1 μM vorinostat and/or 100 nM Trametinib.
(b). Long-term colony formation assay of SK-MEL-147 and SK-MEL-147R cells cultured in the presence of indicated concentrations of vorinostat and/or 5 mM NAC.
(§5) The A375, SK-Mel-147 and SK-Mel-2 melanoma cell lines were obtained from ATCC. […] Trametinib resistant SK-mel-147 and SK-mel-2 were generated by long term culturing with 25 nM (first month), 50 nM (second month) and 100 nM (third month) trametinib.
(§6) For full details, see ref. (Huang et al., 2009).

SK-MEL-2R cells = assay: Long-term colony formation assay, MEKi-resistant SK-MEL-2R cells; format: cell-based, human; conditions: 5 mM NAC
Experimental: (i). Long-term colony formation assay of SK-MEL-2 and MEKi-resistant SK-MEL-2R cells cultured in the presence of 1 μM vorinostat and/or 100 nM Trametinib.
(j) Long-term colony formation assay of SK-MEL-2 and SK-MEL-2R cells cultured in the presence of indicated concentrations of vorinostat and/or 5 mM NAC.
as §5, §6

[4] = tested on: A375 melanoma tumor xenografts; assay: A375 mouse xenografts; format: in vivo, BalbC immunodeficient nude mice; conditions: for tumor volume of PLX4720-resistant tumors after randomization: PLX4720 300 mg/kg in chow and/or vorinostat 100 mg/kg i.p.
Experimental: FIG. 7. HDACi is effective in treatment of BRAF inhibitor resistant melanoma in vivo. A,B). […] A375 melanoma cells were grown as tumor xenografts in BalbC immunodeficient nude mice. After tumor establishment (150-200 mm3), mice were treated with (A). vehicle, PLX4720 (40 mg/kg supplemented in the chow). Upon development of BRAF inhibitor resistance, mice receiving PLX4720 were randomized in four arms (B) receiving: vehicle, PLX4720 (300 mg/kg supplemented in the chow), Vorinostat (100 mg/kg i.p.) or PLX4720 (300 mg/kg supplemented in the chow) plus Vorinostat (100 mg/kg i.p.). C). Resistance to vemurafenib in A375 cells is mediated through reactivation of MAP kinase pathway. Biochemical responses of A375-resistant ex vivo clones and A375 parental cell line treated with 2 microM vemurafenib were documented by western blot analysis. Cells were harvested at 24 hrs after drug treatment. […] HSP90 served as the loading control. […].
A375 melanoma cells (2×10^6 cells per mouse) were injected subcutaneously into the right posterior flanks of 7-week-old immunodeficient BalbC or NMRI nude female mice (6 mice per group; Janvier Laboratories, The Netherlands). Tumor formation was monitored twice a week, and tumor volume based on caliper measurements was calculated by the modified ellipsoidal formula (tumor volume=½(length×width2)). When tumors reached a volume of approximately 0.3 cm^3, mice were randomized into treatment arms. PLX4720 (Plexxikon) was formulated in the chow by Research Diets dosed at 300 mg/kg and vorinostat was formulated in DMSO/saline solution, and it was dosed at 100 mg per kg daily by intraperitoneal injection. When resistance to PLX4720 arises in the group treated with PLX4720, mice bearing tumors of approximately 0.3 cm^3 were again randomized into the treatment arms with the same drug dosages. Animal experiments were approved by the Animal Ethics Committee of the Netherlands Cancer Institute and performed in accordance with institutional, national and European guidelines for Animal Care and Use.
To investigate whether HDACi treatment is a suitable therapy for MPAK pathway inhibitor resistant melanoma, e.g. BRAF inhibitor resistant melanoma, we injected parental vemurafenib sensitive A375 cells into a cohort of 24 BalbC immunodeficient nude mice. After tumors had reached an average volume of 150-200 mm3, we started treatment with vemurafenib by feeding the animals chow supplemented with 40 mg/kg of PLX4720. […] After that period, tumors began to increase in size, indicative of the development of drug resistance (FIG. 7A). When drug resistant tumors in the mice had reached a size of 800 mm3, mice were randomized to four cohorts that were treated either with:
A) no drug; B) PLX4270; C) PLX4270 and vorinostat; D) Vorinostat.

[5] = tested on: 4397A, 4397B, 4393R and 4393L cells; assay: Long-term colony formation assay, ex vivo PLX4720-resistant A375 clones; format: cell-based, human; conditions: four cell lines with in vivo acquired PLX4720 resistance
Description: FIG. 8. In vitro and ex vivo BRAF inhibitor-resistant clones are hypersensitive to HDACi.
We explanted four PLX4720 resistant tumors from mice immediately after acquisition of PLX4720 resistance in vivo and continued to culture these cells in vitro in the presence of BRAF inhibitor. These cells were designated 4397A, 4397B, 4393R and 4393L.

Colo741 melanoma cells = assay: Long-term colony formation assay, Colo741 cells; format: cell-based; conditions: for effect of HDACi on dabrafenib, trametinib and their combination: FIG. 3
Description: as §2, §3

p-MEK in A375 cells = assay: Western blot of MAPK pathway and apoptosis markers, A375 cells; format: cell-based, human; conditions: single drug
Description: as §1
FIG. 7. HDACi is effective in treatment of BRAF inhibitor resistant melanoma in vivo. A,B). […] A375 melanoma cells were grown as tumor xenografts in BalbC immunodeficient nude mice. After tumor establishment (150-200 mm3), mice were treated with (A). vehicle, PLX4720 (40 mg/kg supplemented in the chow). Upon development of BRAF inhibitor resistance, mice receiving PLX4720 were randomized in four arms (B) receiving: vehicle, PLX4720 (300 mg/kg supplemented in the chow), Vorinostat (100 mg/kg i.p.) or PLX4720 (300 mg/kg supplemented in the chow) plus Vorinostat (100 mg/kg i.p.). C). Resistance to vemurafenib in A375 cells is mediated through reactivation of MAP kinase pathway. […]

A375 melanoma cells [6] = assay: Short-term proliferation assay (IncuCyte), A375 cells; format: cell-based, human; conditions: each drug alone, 1 microM
Description: as §1

A375 cells = assay: Staining of beta-galactosidase activity; format: cell-based, human
Description: β-galactosidase activity in cells was detected using Histochemical Staining Kit (CS0030-1KT) from Sigma-Aldrich. The detection was applied according to the manufacturer's instructions.

[7] = tested on: p-MEK in WM2664 melanoma cells; assay: Western blot of p-MEK, WM2664 cells; format: cell-based; conditions: single drug
Experimental: Cells were seeded in medium containing 10% fetal bovine serum (FBS) for indicated time, and then washed with PBS and lysed with RIPA buffer supplemented with protease inhibitor (cOmplete, Roche) and Phosphatase Inhibitor Cocktails II and III (Sigma). All lysates were freshly prepared and processed with Novex NuPAGE Gel Electrophoresis Systems (Invitrogen).

XCT (SLC7A11) mRNA = assay: qRT-PCR of SLC7A11 in SK-MEL-147 and SK-MEL-147R cells; conditions: 72 hours vorinostat treatment
Experimental: The relative mRNA levels were detected by qRT-PCR analysis after 72 hours vorinostat treatment. Error bars represent s.d. of measurement replicates (n=3, *** p<0.001, Student's t-test).
RNA isolation from cell lines harvested with TRIzol reagent (Invitrogen) according to the manufacturer's instruction. cDNA synthesis was performed with Maxima Universal First Strand cDNA Synthesis Kit (# K1661, Thermo scientific) according to manufacturer's instruction.

CC(C)[C@H](C(=O)Nc1ccc(C(=O)NO)cc1)c1ccccc1 [AR2]
sensitivity of cells in proliferation assay, HDACi panel (A375R cells; A375R cells): very sensitive

Cc1nn(C)cc1CN1CCC(c2ccc(C(=O)Nc3ccccc3N)cc2)CC1 [CXD101]
effect of HDACi on the anti-proliferative effect of vemurafenib (A375 melanoma cells [1]): conferred resistance to vemurafenib | proliferation in long-term colony formation assay (A375 melanoma cells [1]): mildly anti-proliferative | sensitivity of cells in long-term colony formation assay [2]: hypersensitive | sensitivity of cells in long-term colony formation assay (A375DR cells; 0.5 microM CDX101): very sensitive | sensitivity of cells in long-term colony formation assay (A375DR cells; 0.5 microM CDX101, listed as CDX101): hypersensitive

Cn1cnc2c(F)c(Nc3ccc(Br)cc3F)c(C(=O)NOCCO)cc21 [MEK162]
patients with objective responses [3]: 20% | patients with stable disease [3]: 43%

CC(=O)N[C@@H](CS)C(=O)O [NAC, N-acetyl-L-cysteine]
effect on the toxic effect of vorinostat (SK-MEL-147R cells; SK-MEL-147R cells, 5 mM NAC): rescued | effect on the toxic effects of vorinostat (SK-MEL-2R cells): countered, at least in part

CCCS(=O)(=O)Nc1ccc(F)c(C(=O)c2c[nH]c3ncc(Cl)cc23)c1F [PLX4720]
tumor volume of PLX4720-resistant tumors after randomization [4]: continued tumor volume increase | period of tumor growth suppression before resistance ([4]; chow supplemented with 40 mg/kg of PLX4720): around 3 months | tumor growth ([4]; chow supplemented with 40 mg/kg of PLX4720, start at 150-200 mm3): significant suppression of tumor growth

CCCCc1nc2cc(/C=C/C(=O)NO)ccc2n1CCN(CC)CC [Pracinostat]
sensitivity of cells in proliferation assay, HDACi panel (A375R cells; A375R cells): very sensitive

Cn1cc(CNCC2CCN(c3ncc(C(=O)NO)cn3)CC2)c2ccccc21 [Quisinostat]
sensitivity of cells in proliferation assay, HDACi panel (A375R cells; A375R cells): very sensitive

O=C(/C=C/c1cccc(S(=O)(=O)Nc2ccccc2)c1)NO [belinostat]
effect of HDACi on the anti-proliferative effect of vemurafenib (A375 melanoma cells [1]): conferred resistance to vemurafenib | proliferation in long-term colony formation assay (A375 melanoma cells [1]): mildly anti-proliferative | sensitivity of cells to HDACi [5]: very sensitive

CC(C)(C)c1nc(-c2cccc(NS(=O)(=O)c3c(F)cccc3F)c2F)c(-c2ccnc(N)n2)s1 [dabrafenib]
proliferation in long-term colony formation assay (A375 melanoma cells [1]): effective in limiting proliferation | proliferation in long-term colony formation assay (Colo741 melanoma cells; MAPK pathway inhibitor(s) without HDACi): effective in limiting proliferation

Nc1ccccc1NC(=O)c1ccc(CNC(=O)OCc2cccnc2)cc1 [entinostat]
effect of HDACi on dabrafenib, trametinib and their combination (A375 melanoma cells [1]): able to confer resistance to these drugs | p-MEK levels (p-MEK in A375 cells): increases p-MEK levels | effect of HDACi on dabrafenib, trametinib and their combination (Colo741 melanoma cells): able to confer resistance to these drugs | sensitivity of cells in long-term colony formation assay [2]: hypersensitive

O=C(O)c1cc(/N=N/c2ccc(S(=O)(=O)Nc3ccccn3)cc2)ccc1O [sulfasalazine]
toxicity in long-term colony formation assay (A375DR cells; sulfasalazine 0.2 to 0.4 mM): toxic | toxicity in long-term colony formation assay (A375R cells; A375R cells, sulfasalazine 0.2 to 0.4 mM): toxic

O=C(CCCCCCC(=O)Nc1ccccc1)NO [vorinostat]
effect of HDACi on dabrafenib, trametinib and their combination (A375 melanoma cells [1]): able to confer resistance to these drugs | effect of HDACi on the anti-proliferative effect of vemurafenib (A375 melanoma cells [1]): almost completely negated the anti-proliferative effects of vemurafenib | proliferation in long-term colony formation assay (A375 melanoma cells [1]): inhibition of proliferation | cell proliferation (cell confluence, IncuCyte) (A375 melanoma cells [6]): restricted cell proliferation | acidic beta-galactosidase (senescence marker) (A375 cells): induction of acidic beta-galactosidase | p-MEK levels [7]: increase in phospho-MEK (p-MEK) | effect of HDACi on dabrafenib, trametinib and their combination (Colo741 melanoma cells): able to confer resistance to these drugs | effect of HDACi on the anti-proliferative effect of vemurafenib (Colo741 melanoma cells; HDACi together with vemurafenib): conferred resistance to vemurafenib | tumor volume of PLX4720-resistant tumors after randomization [4]: rapid decline in tumor volume; also recorded: complete disappearance of the tumors after two months; also recorded: suppress melanoma growth | sensitivity of cells to HDACi [5]: very sensitive | sensitivity of cells in long-term colony formation assay (SK-MEL-147R cells; SK-MEL-147R versus parental SK-MEL-147, 1 μM vorinostat, 100 nM Trametinib): acquired significant sensitivity | XCT (SLC7A11) mRNA expression (XCT (SLC7A11) mRNA): reduced XCT (also known as SLC7A11) mRNA expression; also recorded: suppressed SLC7A11 expression | sensitivity of cells in long-term colony formation assay (A375R cells; A375R cells versus parental A375, vorinostat 1 microM, vemurafenib 2 microM): far more sensitive to vorinostat than parental A375 cells; also recorded: massive inhibition of proliferation; also recorded: hypersensitive | sensitivity of cells in proliferation assay, HDACi panel (A375R cells; A375R cells): very sensitive
